We go through 20 compounds from patent publication US9296741B2, “Bromodomain inhibitors” (priority 2012, dated 2016).

Series [1] can be described thus: Rat liver microsome stability assay. It is filed as in vitro ADME. The conditions noted are these: for half-life at 0.5 μM: 0.25 mg/mL microsomal protein, read-out: Stability in rat liver microsomes (t1/2 in minutes). Background: Microsomes from liver hold many membrane-bound enzymes, among them those of drug oxidation.
Series [2] in a line: Human liver microsome stability assay. The series is classed as in vitro ADME. The conditions noted are these: human, microsomes, pH 7.4; for half-life at 0.5 μM: both sexes.
A short description of series [3]: Mouse liver microsome stability assay. The series is classed as in vitro ADME. Particulars: male, CD1, mouse, microsomes, pH 7.4.
Series [4] concerns the target human BRD4 second bromodomain (BDII_E352-M457) (Homo sapiens (Human), UniProt O60885). The experiment in a line: TR-FRET bromodomain binding assay, BRD4 second bromodomain.
Series [5] concerns breast cancer cell line MX-1. The experiment in a line: MX-1 cell line proliferation assay. The series is classed as cell-based, human. The conditions noted are these: MX-1 cells, 3-day proliferation, Cell Titer Glo, read-out: Cellular proliferation: EC50. A general note: Cellular ATP, detected with luciferase, serves as a proxy for viable cell number.
The target in series [6] is human BRD4 first bromodomain (BDI_K57-E168) (Homo sapiens (Human), UniProt O60885). Kind of series: TR-FRET bromodomain binding assay, BRD4 first bromodomain. On the technique in general: TR-FRET usually uses a lanthanide donor and a delayed reading to cut background.
Where [7] appears, read: rat liver microsomes (male Sprague-Dawley), 0.5 μM test compound, pH 7.4, 37° C.

SMILES strings stand for the structures. Where two headings read alike, the source gives them in different places.

`CN(C)C(=O)CN1CCN(C(=O)c2ccc(Oc3ccc(F)cc3F)c(-c3cn(C)c(=O)c4[nH]ccc34)c2)CC1` [Example 127, 2-{4-[4-(2,4-difluorophenoxy)-3-(6-methyl-7-oxo-6,7-dihydro-1H-pyrrolo[2,3-c]pyridin-4-yl)benzoyl]piperazin-1-yl}-N,N-dimethylacetamide]: the half-life at 0.5 μM in series [1] (setting [7]) was determined as 71 min; in series [2], 44 min; in series [3] it was 20 min.

Consider `Cn1cc(-c2cc(CN3CCOCC3)ccc2OCC2CC2)c2cc[nH]c2c1=O` [Example 316, 4-[2-(cyclopropylmethoxy)-5-(morpholin-4-ylmethyl)phenyl]-6-methyl-1,6-dihydro-7H-pyrrolo[2,3-c]pyridin-7-one], for which the half-life at 0.5 μM in series [1] (setting [7]) came to 3 min; in series [2], 47 min; in series [3], 12 min.

On to `Cn1cc(-c2cc(S(C)(=O)=O)ccc2Oc2cccnc2)c2cc[nH]c2c1=O` [Example 190, 6-methyl-4-[5-(methylsulfonyl)-2-(pyridin-3-yloxy)phenyl]-1,6-dihydro-7H-pyrrolo[2,3-c]pyridin-7-one], for which the half-life at 0.5 μM in series [1] (setting [7]) stood at 66 min; in series [2] it was 27 min; in series [3], 8 min.

Regarding `CCS(=O)(=O)c1ccc(OC2CCC(=O)CC2)c(-c2cn(C)c(=O)c3[nH]ccc23)c1` [Example 199, 4-{5-(ethylsulfonyl)-2-[(4-oxocyclohexyl)oxy]phenyl}-6-methyl-1,6-dihydro-7H-pyrrolo[2,3-c]pyridin-7-one], in series [1] (rat liver microsomes (male Sprague-Dawley), 0.5 μM test compound, […] microsomal protein, pH 7.4, 37° C.), the “Stability in rat liver microsomes (t1/2 in minutes)” value came to 1 min. The half-life at 0.5 μM in series [2] was 94 min; in series [3] it was 3 min.

With `CCN(CC)S(=O)(=O)c1cnc(OCC2CC2)c(-c2cn(C)c(=O)c3[nH]ccc23)c1` [Example 272, 6-(cyclopropylmethoxy)-N,N-diethyl-5-(6-methyl-7-oxo-6,7-dihydro-1H-pyrrolo[2,3-c]pyridin-4-yl)pyridine-3-sulfonamide], the half-life at 0.5 μM in series [1] (setting [7]) worked out at 4 min; in series [2], 2 min. Moreover, the Ki is 11.6 nM in series [4] and 10.2 nM in series [6]. The EC50 in series [5] (Homo sapiens, MX1, 72 h) was determined as 112 nM.

`CCS(=O)(=O)c1ccc(O[C@H]2CC[C@@](C)(OC)CC2)c(-c2cn(C)c(=O)c3[nH]ccc23)c1` [Example 268, 4-(5-(ethylsulfonyl)-2-(cis-4-methoxy-4-methylcyclohexyloxy)phenyl)-6-methyl-1H-pyrrolo[2,3-c]pyridin-7(6H)-one]: the “Stability in rat liver microsomes (t1/2 in minutes)” value in series [1] (rat, microsomes, pH 7.4) came out at 26 min. Moreover, the “Stability in human liver microsomes (t1/2 in minutes)” value in series [2] amounted to 10 min. Also, the Ki in series [4] was 0.57 nM; in series [6], 0.76 nM. The EC50 in series [5] was 6.2 nM.

For `Cn1cc(-c2ccccc2C(=O)c2ccc(Cl)cc2)c2cc[nH]c2c1=O` [Example 139, 4-[2-(4-chlorobenzoyl)phenyl]-6-methyl-1,6-dihydro-7H-pyrrolo[2,3-c]pyridin-7-one], the half-life at 0.5 μM in series [1] (setting [7]) was determined as 8 min; in series [2] it was 13 min; in series [3], 7 min.

As to `CCS(=O)(=O)c1ccc(OC2CCSCC2)c(-c2cn(C)c(=O)c3[nH]ccc23)c1` [Example 264, 4-[5-(ethylsulfonyl)-2-(tetrahydro-2H-thiopyran-4-yloxy)phenyl]-6-methyl-1,6-dihydro-7H-pyrrolo[2,3-c]pyridin-7-one], the values for the half-life at 0.5 μM in series [1] (setting [7]) and in series [2] were 6 min and 14 min, respectively. In addition, the inhibitory constant (Ki) in series [4] and in series [6] was 1.2 nM throughout. The EC50 in series [5] (Homo sapiens, MX1, 72 h) stood at 17.8 nM.

Take `CCS(=O)(=O)Nc1ccc(OC2CCOC2)c(-c2cn(C)c(=O)c3[nH]ccc23)c1` (centres unmarked) [Example 66, N-[3-(6-methyl-7-oxo-6,7-dihydro-1H-pyrrolo[2,3-c]pyridin-4-yl)-4-(tetrahydrofuran-3-yloxy)phenyl]ethanesulfonamide]: the half-life at 0.5 μM in series [1] (setting [7]) and in series [2] was over 120 min in each case. Besides, the Ki turned out to be 3.4 nM in series [4] and 0.74 nM in series [6]. For the same compound, in series [5] (Homo sapiens, MX1, 72 h), the EC50 was 33.2 nM.

For the compound `Cn1cc(-c2cc(C(=O)NCCc3c[nH]c4ccccc34)ccc2Oc2ccc(F)cc2F)c2cc[nH]c2c1=O` [Example 133, 4-(2,4-difluorophenoxy)-N-[2-(1H-indol-3-yl)ethyl]-3-(6-methyl-7-oxo-6,7-dihydro-1H-pyrrolo[2,3-c]pyridin-4-yl)benzamide], the half-life at 0.5 μM in series [1] (setting [7]) was determined as 5 min; in series [2] it was 4 min; in series [3], 3 min.

As for `Cn1cc(-c2cc(S(=O)(=O)Nc3ccc(F)cc3)ccc2OCC2CC2)c2cc[nH]c2c1=O` [Example 347, 4-(cyclopropylmethoxy)-N-(4-fluorophenyl)-3-(6-methyl-7-oxo-6,7-dihydro-1H-pyrrolo[2,3-c]pyridin-4-yl)benzenesulfonamide], the values for the half-life at 0.5 μM in series [1] (setting [7]) and in series [2] were 6 min and 4 min, respectively. For the same compound, the Ki was determined as 4 nM in series [4] and 15.6 nM in series [6]. For the same compound, in series [5] (Homo sapiens, MX1, 72 h), the EC50 is 83.9 nM.

As to `CCS(=O)(=O)c1ccc(OC2CCS(=O)(=O)CC2)c(-c2cn(C)c(=O)c3[nH]ccc23)c1` [Example 265, 4-{2-[(1,1-dioxidotetrahydro-2H-thiopyran-4-yl)oxy]-5-(ethylsulfonyl)phenyl}-6-methyl-1,6-dihydro-7H-pyrrolo[2,3-c]pyridin-7-one], the half-life at 0.5 μM in series [1] (setting [7]) and in series [2] was over 120 min each time. For the same compound, the inhibition constant Ki amounted to 35.6 nM in series [4] and 9 nM in series [6]. Also, in series [5] (Homo sapiens, MX1, 72 h), the EC50 is over 3000 nM.

In the case of `CCOc1ccc(S(C)(=O)=O)cc1-c1cn(C)c(=O)c2[nH]ccc12` [Example 259, 4-[2-ethoxy-5-(methylsulfonyl)phenyl]-6-methyl-1,6-dihydro-7H-pyrrolo[2,3-c]pyridin-7-one], the results for the half-life at 0.5 μM in series [1] (setting [7]) and in series [2] were 87 min and 117 min, respectively. The inhibition constant Ki in series [4] is 20.3 nM; in series [6], 24.2 nM. Besides, the EC50 in series [5] (Homo sapiens, MX1, 72 h) amounted to 123 nM.

For `CCS(=O)(=O)N(CC1CC1)c1ccc(Oc2ccc(F)cc2F)c(-c2cn(C)c(=O)c3[nH]ccc23)c1` [Example 343, N-(cyclopropylmethyl)-N-[4-(2,4-difluorophenoxy)-3-(6-methyl-7-oxo-6,7-dihydro-1H-pyrrolo[2,3-c]pyridin-4-yl)phenyl]ethanesulfonamide], the figures for the half-life at 0.5 μM in series [1] (setting [7]) and in series [2] were 7 min and 2 min, respectively. Moreover, the figures for the Ki in series [4] and in series [6] were 4.8 nM and 42.7 nM, respectively. The EC50 in series [5] (Homo sapiens, MX1, 72 h) came out at 224 nM.

For `CN(C)S(=O)(=O)c1cnc(Oc2ccc(F)cc2F)c(-c2cn(C)c(=O)c3[nH]ccc23)c1` [Example 266, 6-(2,4-difluorophenoxy)-N,N-dimethyl-5-(6-methyl-7-oxo-6,7-dihydro-1H-pyrrolo[2,3-c]pyridin-4-yl)pyridine-3-sulfonamide], the half-life at 0.5 μM in series [1] (setting [7]) stood at 20 min; in series [2], 8 min. For the same compound, the Ki in series [4] came out at 7.8 nM; in series [6], 21.5 nM. Also, the EC50 in series [5] (Homo sapiens, MX1, 72 h) turned out to be 56.4 nM.

As for `COc1cc(Br)ccc1-c1cn(C)c(=O)c2[nH]ccc12` [Example 241, 4-(4-bromo-2-methoxyphenyl)-6-methyl-1,6-dihydro-7H-pyrrolo[2,3-c]pyridin-7-one], the half-life at 0.5 μM in series [1] (setting [7]) is 9 min; in series [2] it was 39 min; in series [3] it was 4 min.

Consider `Cn1cc(-c2ccccc2Oc2ccccc2)c2cc(-c3ccccc3)[nH]c2c1=O` [Example 88, 6-methyl-4-(2-phenoxyphenyl)-2-phenyl-1,6-dihydro-7H-pyrrolo[2,3-c]pyridin-7-one], for which the results for the half-life at 0.5 μM in series [1] (setting [7]) and in series [2] were 12 min and 23 min, respectively. For the same compound, the Ki in series [4] amounted to 236 nM; in series [6] it was 635 nM. Also, the EC50 in series [5] (Homo sapiens, MX1, 72 h) was over 3000 nM.

As to `Cn1cc(-c2cc(S(=O)(=O)N3CCCC3)ccc2Oc2ccc(F)cc2F)c2cc[nH]c2c1=O` [Example 299, 4-[2-(2,4-difluorophenoxy)-5-(pyrrolidin-1-ylsulfonyl)phenyl]-6-methyl-1,6-dihydro-7H-pyrrolo[2,3-c]pyridin-7-one], the values for the half-life at 0.5 μM in series [1] (setting [7]) and in series [2] were 2 min and 1 min, respectively. Also, the Ki in series [4] was determined as 5 nM; in series [6], 80.1 nM. Besides, the EC50 in series [5] (Homo sapiens, MX1, 72 h) amounted to 36 nM.

For `Cn1cc(-c2cc(S(=O)(=O)NCc3cccnc3)ccc2OCC2CC2)c2cc[nH]c2c1=O` [Example 333, 4-(cyclopropylmethoxy)-3-(6-methyl-7-oxo-6,7-dihydro-1H-pyrrolo[2,3-c]pyridin-4-yl)-N-(pyridin-3-ylmethyl)benzenesulfonamide], the half-life at 0.5 μM was 3 min in series [1] (setting [7]) and 0.8 min in series [2]. The Ki in series [4] is 32.7 nM; in series [6], 36.9 nM. For the same compound, the EC50 in series [5] (Homo sapiens, MX1, 72 h) is 74 nM.

`CCS(=O)(=O)N(Cc1ccccn1)c1ccc(Oc2ccc(F)cc2F)c(-c2cn(C)c(=O)c3[nH]ccc23)c1` [Example 342, N-[4-(2,4-difluorophenoxy)-3-(6-methyl-7-oxo-6,7-dihydro-1H-pyrrolo[2,3-c]pyridin-4-yl)phenyl]-N-(pyridin-2-ylmethyl)ethanesulfonamide]: the results for the half-life at 0.5 μM in series [1] (setting [7]) and in series [2] were 5 min and 2 min, respectively. The inhibition constant (Ki) in series [4] was 11.5 nM; in series [6], 71.9 nM. In addition, in series [5] (Homo sapiens, MX1, 72 h), the EC50 turned out to be 510 nM.

For orientation: Ki means the equilibrium dissociation constant of an inhibitor or competing ligand from its target. Lower therefore signals a stronger hold on the target.
